Numbered stars: 1 amine (or outer) side, 2 acyl side, 3 side chain; on linkers, the order of the positions; unused ones are H or OH. Bridge positions count the residues as written; N and C are the ends. Square brackets hold non-standard residues; d marks the D form. Peptide text beside a SMILES is read from it. ξ: configuration not given here. X8 = C/C=C(\C)[C@@H](O[*:2])[C@@H](C)CC/C=C(\C)C(=O)[*:1]; X2 = C/C(=C\CCC[C@@H](O[*:2])C(C)C)C(=O)[*:1]; X7 = C/C(=C\CCC[C@H](O[*:2])C(C)C)C(=O)[*:1]; X1 = C/C(=C\CC[C@@H](C)CO[*:2])C(=O)[*:1]; X5 = C/C(=C\CC[C@H](C)CO[*:2])C(=O)[*:1]; dNMeF = CN[C@H](Cc1ccccc1)C(=O)O; Ile(3ξ) = CCC(C)[C@H](N)C(=O)O; dHica = CC(C)C[C@@H](O)C(=O)O; dNMeA = CN[C@H](C)C(=O)O; Sar = CNCC(=O)O
Legend:
HCC1954 cells = assay: Inhibitory response of test compounds against HCC1954 cells (method analogous to BT-474); assay type: cell-based; conditions: Homo sapiens
Experimental: (§1) BT-474 human mammary gland ductal carcinoma cells were seeded in a clear polystyrene 96-well microculture plate (Corning® Costar® 96-well flat bottom plate, Cat.#3997) in a total volume of 90 μL/well. After 24 hours of incubation in a humidified incubator at 37° C. with 5% CO2 and 95% air, 10 μL of 10×, serially diluted test agents in growth medium were added to each well (10 pt dose response curve, highest concentration 10 μM of test agent). After 72 hours of culture in a humidified incubator at 37° C., in an atmosphere of 5% CO2 and 95% air, the plated cells and Cell Titer-Glo® (Promega G7571) reagents were brought to room temperature to equilibrate for 30 minutes. 100 μL of Cell Titer-Glo® reagent was added to each well. The plate was shaken for two minutes and then left to equilibrate for ten minutes. The media/Cell Titer-Glo® reagent was transferred to a white polystyrene 96-well microculture plate (Corning® Costar® 96-well flat bottom plate, Cat.#3917) before reading luminescence on a Tecan GENios microplate reader.
(§2) Percent inhibition of cell growth was calculated relative to untreated control wells. The IC50 value for the test agents was determined using Prism 6.05 by curve-fitting of the data using the following four parameter-logistic equation:
(§3) [formula] where Top is the maximal % of control absorbance, Bottom is the minimal % of control absorbance at the highest agent concentration, Y is the % of control absorbance, X is the agent concentration, IC50 is the concentration of agent that inhibits cell growth by 50% compared to the control cells, and n is the slope of the curve.
Inhibitory response of test compounds against HCC1954 cells was determined using a method analogous to that used for BT-474 cells.

[1] = test system: BT-474 human mammary gland ductal carcinoma cells; assay: Inhibitory response of test compounds against BT-474 cells (Cell Titer-Glo, 72 h); assay type: cell-based; conditions: Homo sapiens
Experimental: as §1, §2, §3

| Structure (SMILES) | IC50 (HCC1954 cells) [nM] | IC50 [1] [nM] |
| --- | --- | --- |
| CCC(C)[C@@H]1NC(=O)CN(C)C(=O)[C@@H](Cc2ccccc2)N(C)C(=O)[C@H](C)NC(=O)[C@@H](CC(C)C)OC(=O)/C(C)=C/CCC[C@@H](C(C)C)OC(=O)[C@@H](C)NC1=O (stereo partly drawn) [Compound 86] ([dHica]A[dNMeF][Sar][Ile(3ξ)][dA]; linker N-C via X7) | 200 to 10000 | 200 to 10000 |
| CCC(C)[C@@H]1NC(=O)CN(C)C(=O)[C@@H](Cc2ccccc2)N(C)C(=O)[C@H](C)NC(=O)[C@@H](CC(C)C)OC(=O)/C(C)=C/CCC[C@H](C(C)C)OC(=O)[C@@H](C)NC1=O (stereo partly drawn) [Compound 87] ([dHica]A[dNMeF][Sar][Ile(3ξ)][dA]; linker N-C via X2) | 200 to 10000 | 200 to 10000 |
| CCC(C)[C@@H]1NC(=O)CN(C)C(=O)[C@@H](Cc2ccccc2)N(C)C(=O)[C@H](C)NC(=O)[C@@H](CC(C)C)OC(=O)/C(C)=C/CCC[C@@H](C(C)C)OC(=O)[C@@H](C)N(C)C1=O (stereo partly drawn) [Compound 88] ([dHica]A[dNMeF][Sar][Ile(3ξ)][dNMeA]; linker N-C via X7) | 200 to 10000 | 200 to 10000 |
| CCC(C)[C@@H]1NC(=O)CN(C)C(=O)[C@@H](Cc2ccccc2)N(C)C(=O)[C@H](C)NC(=O)[C@@H](CC(C)C)OC(=O)/C(C)=C/CCC[C@H](C(C)C)OC(=O)[C@@H](C)N(C)C1=O (stereo partly drawn) [Compound 89] ([dHica]A[dNMeF][Sar][Ile(3ξ)][dNMeA]; linker N-C via X2) | 200 to 10000 | 20 to 200 |
| C/C=C(\C)[C@H]1OC(=O)[C@@H](C)NC(=O)[C@H](C(C)CC)NC(=O)CN(C)C(=O)[C@@H](Cc2ccccc2)N(C)C(=O)[C@H](C)NC(=O)[C@@H](CC(C)C)OC(=O)/C(C)=C/CC[C@@H]1C (stereo partly drawn) [Compound 90] | < 20 | < 20 |
| CCC(C)[C@@H]1NC(=O)CN(C)C(=O)[C@@H](Cc2ccccc2)N(C)C(=O)[C@H](C)NC(=O)[C@@H](CC(C)C)OC(=O)/C(C)=C/CC[C@H](C)COC(=O)[C@@H](C)NC1=O (stereo partly drawn) [Compound 91] ([dHica]A[dNMeF][Sar][Ile(3ξ)][dA]; linker N-C via X5) | 200 to 10000 | 200 to 10000 |
| CCC(C)[C@@H]1NC(=O)CN(C)C(=O)[C@@H](Cc2ccccc2)N(C)C(=O)[C@H](C)NC(=O)[C@@H](CC(C)C)OC(=O)/C(C)=C/CC[C@@H](C)COC(=O)[C@@H](C)NC1=O (stereo partly drawn) [Compound 92] ([dHica]A[dNMeF][Sar][Ile(3ξ)][dA]; linker N-C via X1) | 200 to 10000 | 200 to 10000 |
| C/C=C(\C)[C@H]1OC(=O)[C@@H](C)NC(=O)[C@H](C(C)CC)NC(=O)CN(C)C(=O)[C@@H](Cc2ccccc2)N(C)C(=O)[C@H](C)NC(=O)[C@@H](CC(C)C)OC(=O)/C(C)=C/C[C@H](OC(=O)N(C)CCN(C)C(=O)OC(C)(C)C)[C@@H]1C (stereo partly drawn) [Compound 93] | < 20 | < 20 |
| C/C=C(\C)[C@H]1OC(=O)[C@@H](C)NC(=O)[C@H](C(C)CC)NC(=O)CN(C)C(=O)[C@@H](Cc2ccccc2)N(C)C(=O)[C@H](C)NC(=O)[C@@H](CC(C)C)OC(=O)/C(C)=C/C[C@H](OCSC)[C@@H]1C (stereo partly drawn) [Compound 94] | < 20 | < 20 |
| C/C=C(\C)[C@H]1OC(=O)[C@@H](C)NC(=O)[C@H](C(C)CC)NC(=O)CN(C)C(=O)[C@@H](Cc2ccc(OC)cc2)N(C)C(=O)[C@H](C)NC(=O)[C@@H](CC(C)C)OC(=O)/C(C)=C/C=C/[C@@H]1C (stereo partly drawn) [Compound 95] | 20 to 200 | < 20 |
| C/C=C(\C)[C@H]1OC(=O)[C@@H](C)NC(=O)[C@H]([C@H](C)CC)NC(=O)CN(C)C(=O)[C@@H](Cc2ccccc2)N(C)C(=O)[C@H](CCCCNC(=O)OC(C)(C)C)NC(=O)[C@@H](CC(C)C)OC(=O)/C(C)=C/C[C@H](O)[C@@H]1C [Compound 96] | < 20 | < 20 |
| C/C=C(\C)[C@H]1OC(=O)[C@@H](C)NC(=O)[C@H]([C@H](C)CC)NC(=O)CN(C)C(=O)[C@@H](Cc2ccc(OCc3ccccc3)cc2)N(C)C(=O)[C@H](C)NC(=O)[C@@H](CC(C)C)OC(=O)/C(C)=C/C=C/[C@@H]1C [Compound 98] | < 20 | < 20 |
| C/C=C(\C)[C@H]1OC(=O)[C@@H](C)NC(=O)[C@H](C(C)CC)NC(=O)CN(C)C(=O)[C@@H](Cc2ccc(O)cc2)N(C)C(=O)[C@H](C)NC(=O)[C@@H](CC(C)C)OC(=O)/C(C)=C/C=C/[C@@H]1C (stereo partly drawn) [Compound 99] | 200 to 10000 | 20 to 200 |
| C/C=C(\C)[C@H]1OC(=O)[C@@H](C)N(C)C(=O)[C@H](C(C)CC)NC(=O)CN(C)C(=O)[C@@H](Cc2ccccc2)N(C)C(=O)[C@H](C)NC(=O)[C@@H](CC(C)C)OC(=O)/C(C)=C/CC[C@@H]1C (stereo partly drawn) [Compound 100] ([dHica]A[dNMeF][Sar][Ile(3ξ)][dNMeA]; linker N-C via X8) | 20 to 200 | < 20 |
| C/C=C(\C)[C@H]1OC(=O)[C@@H](C)NC(=O)[C@H]([C@H](C)CC)NC(=O)CN(C)C(=O)[C@@H](Cc2ccc(F)cc2)N(C)C(=O)[C@H](C)NC(=O)[C@@H](CC(C)C)OC(=O)/C(C)=C/C[C@H](OCSC)[C@@H]1C [Compound 101] | < 20 | < 20 |
| C/C=C(\C)[C@H]1OC(=O)[C@@H](C)NC(=O)[C@H](C(C)CC)NC(=O)CN(C)C(=O)[C@@H](Cc2ccc(O)cc2)N(C)C(=O)[C@H](C)NC(=O)[C@@H](CC(C)C)OC(=O)/C(C)=C/CC[C@@H]1C (stereo partly drawn) [Compound 102] | 20 to 200 | < 20 |
| C/C=C(\C)[C@H]1OC(=O)[C@@H](C)NC(=O)[C@H]([C@H](C)CC)NC(=O)CN(C)C(=O)[C@@H](Cc2ccccc2)N(C)C(=O)[C@H](C)NC(=O)[C@@H](CC(C)C)OC(=O)/C(C)=C/C[C@H](OC(=O)NCCCCCCNC(=O)OC(C)(C)C)[C@@H]1C [Compound 105] | < 20 | < 20 |
| C/C=C(\C)[C@H]1OC(=O)[C@@H](C)NC(=O)[C@H]([C@H](C)CC)NC(=O)CN(C)C(=O)[C@@H](Cc2ccccc2)N(C)C(=O)[C@H](C)NC(=O)[C@@H](CC(C)C)OC(=O)/C(C)=C/C[C@H](OC(=O)NCCCOCCOCCOCCCNC(=O)OC(C)(C)C)[C@@H]1C [Compound 106] | < 20 | < 20 |
| C/C=C(\C)[C@H]1OC(=O)[C@@H](C)NC(=O)[C@H](C(C)CC)NC(=O)CN(C)C(=O)[C@@H](Cc2ccccc2)N(C)C(=O)[C@H](C)NC(=O)[C@@H](CC(C)C)OC(=O)/C(C)=C/C[C@H](CC(=O)NCCCCCCN)[C@@H]1C (stereo partly drawn) [Compound 107] | 20 to 200 | < 20 |
| C/C=C(\C)[C@H]1OC(=O)[C@@H](C)NC(=O)[C@H](C(C)CC)NC(=O)CN(C)C(=O)[C@@H](Cc2ccccc2)N(C)C(=O)[C@H](C)NC(=O)[C@@H](CC(C)C)OC(=O)/C(C)=C/C[C@H](OC(=O)NCCCOCCOCCOCCCN)[C@@H]1C (stereo partly drawn) [Compound 108] | 200 to 10000 | 20 to 200 |
| C/C=C(\C)[C@H]1OC(=O)[C@@H](C)NC(=O)[C@H]([C@H](C)CC)NC(=O)CN(C)C(=O)[C@@H](Cc2ccccc2)N(C)C(=O)[C@H](C)NC(=O)[C@@H](CC(C)C)OC(=O)/C(C)=C/C[C@H](CC(=O)N(C)CCN(C)C(=O)c2ccc(C=O)cc2)[C@@H]1C [Compound 110] | 20 to 200 | < 20 |
| C/C=C(\C)[C@H]1OC(=O)[C@@H](C)NC(=O)[C@H]([C@H](C)CC)NC(=O)CN(C)C(=O)[C@@H](Cc2ccccc2)N(C)C(=O)[C@H](C)NC(=O)[C@@H](CC(C)C)OC(=O)/C(C)=C/C[C@H](OC(=O)NCCCCCCNC(=O)CCOCCOCCOCCOCCNC(=O)c2ccc(C=O)cc2)[C@@H]1C [Compound 111] | > 10000 | > 10000 |
| C/C=C(\C)[C@H]1OC(=O)[C@@H](C)NC(=O)[C@H]([C@H](C)CC)NC(=O)CN(C)C(=O)[C@@H](Cc2ccccc2)N(C)C(=O)[C@H](C)NC(=O)[C@@H](CC(C)C)OC(=O)/C(C)=C/C[C@H](OC(=O)NCCCOCCOCCOCCCN=[N+]=N)[C@@H]1C [Compound 113] | < 20 | < 20 |
| C/C=C(\C)[C@H]1OC(=O)[C@@H](C)NC(=O)[C@H]([C@H](C)CC)NC(=O)CN(C)C(=O)[C@@H](Cc2ccccc2)N(C)C(=O)[C@H](C)NC(=O)[C@@H](CC(C)C)OC(=O)/C(C)=C/C[C@H](OC(=O)N(C)CCN(C)C=O)[C@@H]1C [Compound 114] | 20 to 200 | < 20 |
| C/C=C(\C)[C@H]1OC(=O)[C@@H](C)NC(=O)[C@H]([C@H](C)CC)NC(=O)CN(C)C(=O)[C@@H](Cc2ccccc2)N(C)C(=O)[C@H](C)NC(=O)[C@@H](CC(C)C)OC(=O)/C(C)=C/C[C@H](OC(=O)N(C)CCN(C)S(=O)(=O)c2ccc([N+](=O)[O-])cc2)[C@@H]1C [Compound 115] | < 20 | < 20 |
| C/C=C(\C)[C@H]1OC(=O)[C@@H](C)NC(=O)[C@H]([C@H](C)CC)NC(=O)CN(C)C(=O)[C@@H](Cc2ccccc2)N(C)C(=O)[C@H](C)NC(=O)[C@@H](CC(C)C)OC(=O)/C(C)=C/C[C@H](OC(=O)NCCCOCCOCCOCCCNC(=O)c2ccc(C(C)=O)cc2)[C@@H]1C [Compound 116] | 20 to 200 | < 20 |
| C/C=C(\C)[C@H]1OC(=O)[C@@H](C)NC(=O)[C@H]([C@H](C)CC)NC(=O)CN(C)C(=O)[C@@H](Cc2ccccc2)N(C)C(=O)[C@H](C)NC(=O)[C@@H](CC(C)C)OC(=O)/C(C)=C/C[C@H](OC(=O)N(C)CCN(C)C(=O)OCC[Si](C)(C)C)[C@@H]1C [Compound 117] | 20 to 200 | 20 to 200 |
